{"source": "patent US9974768B2", "about": "“Pharmaceutical for improving dysphagia” (MEIJI SEIKA PHARMA CO., LTD., priority 2013, dated 2018)", "key": {"[1]": {"test_system": "guinea pig dysphagia model induced by repeated administrations of haloperidol", "experiment": "Swallowing reflex improvement in guinea pig dysphagia model induced by repeated administrations of haloperidol (water drinking frequency)", "assay_type": "in vivo"}, "normal guinea pig": {"test_system": "normal guinea pig", "experiment": "Swallowing reflex in normal guinea pig after local pharyngeal administration of substance P receptor antagonist FK888", "assay_type": "in vivo", "experimental": "FIG. 4 is a graph showing the results of a study of decrease in a swallowing reflex in a normal guinea pig by local administration to a pharyngeal site of a substance P receptor antagonist, and an improving effect by a prior local administration to the pharyngeal site of a captopril aqueous solution in Example 3.\nFK888 (10 μM, 50 μL/guinea pig), which is a substance P receptor antagonist, was administered locally with a spray device to a pharyngeal site of a guinea pig, and water drinking reflection frequency was measured in the same way as in Experiment 1."}, "Hartley guinea pigs": {"test_system": "Hartley guinea pigs", "experiment": "Swallowing reflex decrease by repeated administrations of haloperidol (water drinking frequency)", "assay_type": "in vivo, guinea pig", "conditions": "haloperidol 1 mg/kg s.c. twice per day for 7 days, compared to physiological saline group", "experimental": "To 6 week-old female Hartley guinea pigs (330 to 390 g) habituated for 1 week after receipt, a physiological saline solution, or a haloperidol solution was injected subcutaneously in a dosage of 1 mg/kg approx. every 12 hours twice per day for 7 days. Thereafter, a guinea pig was fixed at extremities, and 500 μL of distilled water was injected over 5 sec through a device to a part just before the pharynx, and the total frequency of swallowing until 10 sec and 30 sec from the injection was measured based on a muscle movement in a pharyngeal site. Thereafter a physiological saline solution, or a haloperidol solution was injected again (1 mg/kg).\nThe measurements were repeated totally 4 times at intervals of 1 min. […] Based on the result, the guinea pig was used as a dysphagia model induced by repeated administrations of haloperidol in the following experiments for evaluation of drug efficacy."}, "[2]": {"test_system": "blood pressure increase induced by angiotensin I", "experiment": "Blood pressure increase induced by intravenous angiotensin I in normal rat", "conditions": "angiotensin I 300 ng/kg i.v. after 1 hour", "method": "The respective dose of a captopril, or lisinopril aqueous solution was administered orally and the blood pressures were measured after 1 hour. Thereafter, angiotensin I was administered intravenously (300 ng/kg) to induce blood pressure increase and a change in the mean blood pressure was measured."}}, "note": "Entries after “also recorded” stand apart in the source; their conditions may differ.", "data": [{"compound": "CN(Cc1ccccc1)C(=O)[C@H](Cc1ccc2ccccc2c1)NC(=O)[C@@H]1C[C@@H](O)CN1C(=O)c1cn(C)c2ccccc12", "note": "[FK888]", "values": [{"measurement": "increase in water drinking frequency by lisinopril (50 nM, 100 μL)", "setting": "[1]; FK888 10 nM, 100 μL sprayed to pharyngeal mucosa 15 min after lisinopril administration", "result": "almost completely suppressed"}, {"measurement": "influence on swallowing reflex", "setting": "normal guinea pig; FK888 10 nM, 100 μL, local, stated as lower limit", "result": "not influencing swallowing reflex"}, {"measurement": "swallowing reflex (water drinking reflection frequency)", "setting": "normal guinea pig; FK888 10 μM, 50 μL/guinea pig, single local spray to pharyngeal site", "result": "decrease in swallowing reflex"}]}, {"compound": "C[C@H](CS)C(=O)N1CCC[C@H]1C(=O)O", "note": "[captopril]", "values": [{"measurement": "water drinking frequency", "setting": "[1]; 100 μL of 50 μM aqueous solution, single spray to pharyngeal mucosa, 30 min after administration", "result": "significant increase; also recorded: exhibited an improving effect on dysphagia"}, {"measurement": "water drinking frequency", "setting": "[1]; 100 μL of 50 mM aqueous solution, single spray to pharyngeal mucosa, 30 min after administration", "result": "significant increase; also recorded: exhibited an improving effect on dysphagia"}, {"measurement": "water drinking frequency (dysphagia improving effect)", "setting": "[1]; oral (intragastric) administration, same dose as 100 μL of 50 μM solution, 30 min after administration", "result": "did not exert an influence"}, {"measurement": "water drinking frequency (dysphagia improving effect)", "setting": "[1]; oral (intragastric) administration, same dose as 100 μL of 50 mM solution, 30 min after administration", "result": "did not exert an influence"}, {"measurement": "decrease in swallowing reflex by FK888 administration", "setting": "normal guinea pig; captopril aqueous solution sprayed to pharyngeal site in a single dose 30 min before FK888", "result": "suppressed"}]}, {"compound": "O=C(CCCN1CCC(O)(c2ccc(Cl)cc2)CC1)c1ccc(F)cc1", "note": "[haloperidol]", "values": [{"measurement": "water drinking frequency", "setting": "Hartley guinea pigs", "result": "significantly decreased"}]}, {"compound": "NCCCC[C@H](N[C@@H](CCc1ccccc1)C(=O)O)C(=O)N1CCC[C@H]1C(=O)O", "note": "[lisinopril]", "values": [{"measurement": "dose (solution concentration) with significant increase in water drinking frequency", "setting": "[1]; 100 μL aqueous solution, single spray to pharyngeal mucosa", "result": "≥ 50", "unit": "nM"}, {"measurement": "water drinking frequency", "setting": "[1]; 100 μL of 0.5 nM to 500 μM aqueous solution, single spray to pharyngeal mucosa", "result": "dose-dependent increase"}, {"measurement": "water drinking frequency", "setting": "[1]; 100 μL of 50 nM aqueous solution, single spray to pharyngeal mucosa, 30 min after administration", "result": "increase in water drinking frequency"}, {"measurement": "dose per administration giving dysphagia improving effect in a human", "setting": "[1]; converted for a human having an average body weight of 60 kg", "result": "≥ 300", "unit": "ng"}, {"measurement": "dysphagia improvement effective dose based on body weight", "setting": "[1]; converted from effective dose obtained in Examples", "result": 0.005, "unit": "µg/kg"}, {"measurement": "water drinking frequency (dysphagia improving effect)", "setting": "[1]; local administration of 100 μL of 50 μM aqueous solution to pharyngeal mucosa, 2 hours after administration", "result": "exhibited an improving effect on dysphagia"}, {"measurement": "water drinking frequency (dysphagia improving effect)", "setting": "[1]; oral (intragastric) administration of same dose as local (100 μL of 50 mM solution), 2 hours after administration", "result": "exerted no influence; also recorded: no dysphagia improving effect was observed"}, {"measurement": "vasopressor reaction by administration of angiotensin I (change in mean blood pressure)", "setting": "[2]; 100 μL of 5 μM aqueous solution orally", "result": "had no influence"}, {"measurement": "vasopressor reaction by administration of angiotensin I (change in mean blood pressure)", "setting": "[2]; 100 μL of 5 mM aqueous solution orally", "result": "suppressed a vasopressor reaction"}]}]}
